Literature values, collected in US20060201863A1, “Sterilization water tank” (priority 2003, published 2006).

Columns and labels:
Salmonella = conditions: against Salmonella
Bacteria = conditions: against Bacteria
Pneumonia bacillus = conditions: against Pneumonia bacillus
Pseudomonas aeruginosa = conditions: against Pseudomonas aeruginosa
Colitis germs [1] = conditions: against Colitis germs
Staphylococcus = conditions: against Staphylococcus
Rice-straw bacillus = conditions: against Rice-straw bacillus
Colitis germs [2] = conditions: silver in an ionized state

SMILES | MIC (minimum inhibitory concentration) (Salmonella) [ppm] | MIC (minimum inhibitory concentration) (Bacteria) [ppm] | MIC (minimum inhibitory concentration) (Pneumonia bacillus) [ppm] | MIC (minimum inhibitory concentration) (Pseudomonas aeruginosa) [ppm] | MIC (minimum inhibitory concentration) (Colitis germs [1]) [ppm] | MIC (minimum inhibitory concentration) (Staphylococcus) [ppm] | MIC (minimum inhibitory concentration) (Rice-straw bacillus) [ppm] | amount that may kill colitis germs (Colitis germs [2])
[Cu+2] [Copper ion, reference compound] | 400 | 400 | 200 | 400 | 200 | 400 | 400 | 
[Ag+] [Silver ion] | 0.78 | 0.78 | 0.78 | 0.78 | 6.3 | 0.78 | 1.56 | about several ten
